Legend:
[1] = Singlet oxygen quantum yield in DMSO; format: physicochemical; conditions: DPBF as the quencher and Pyro as the reference
Protocol: (§1) The UV–Vis absorption spectra and fluorescence spectra of the synthesized conjugates of Pyro-MonoRGD, Pyro-DiRGD, Pyro-TriRGD, and free Pyro were measured in DMSO. Absorption spectra were recorded from 300 to 800 nm. Fluorescence emission and excitation spectra were recorded from 550 to 800 nm upon excitation at approximately 668 nm and emission at 672–673 nm using a Hitachi model F-4500 FL spectrophotometer (Tokyo, Japan). The singlet oxygen quantum yields (ΦΔ) of the conjugates were measured in DMSO using DPBF as the quencher and Pyro as the reference.

tumors in a mouse model = conditions: general statement on Pyro; no reference given at the statement; cited from earlier work
Source text: (§2) Pyro is a very promising photosensitizer with ideal photoactivity properties, including a high extinction coefficient (3.79 × 10^4 L mol^−1 cm^−1) and a high singlet oxygen quantum yield (over 50%). […] Solving the tumor enrichment problem is very important for its clinical application. Here, to further increase the affinity of RGD peptide-coupled Pyro conjugates to the receptor αvβ3 integrin, we synthesized multimeric RGD-coupled Pyro conjugates to increase the affinity via multivalent and cluster effects, thereby improving the upt ...

[2] = cited from earlier work
Source text: as §2

[3] = UV–Vis absorption and fluorescence spectra in DMSO; format: physicochemical; conditions: for λmax: UV–Vis absorption in DMSO, Q-band, recorded from 300 to 800 nm; for λem: fluorescence emission in DMSO, Hitachi F-4500, 2.0 µM, excitation at approximately 668 nm; for Stokes Shift: in DMSO
Protocol: as §1

[4] = biological target: human isolated αvβ3 integrin receptors (ITGAV&ITGB3 heterodimer) (Homo sapiens, UniProt P05106+P06756); assay: Receptor binding assay: competitive inhibition of biotinylated vitronectin binding to αvβ3 integrin; conditions: for IC50: biotinylated vitronectin 2.0 μg/mL, integrin 2.0 μg/mL in PBS pH 7.4, 4 °C overnight, test compounds 10^−3 to 10^−11 M, 3 h, 37 °C shaker, streptavidin–HRP/TMB, absorbance 450 nm, nonlinear regression GraphPad Prism 5.0, means ± SD of triplicate determinations
Protocol: Human integrin αvβ3 (ITGAV&ITGB3) heterodimer protein was diluted to 2.0 μg/mL in PBS buffer (pH 7.4) and was then added to a 96-well plate (100 μL/well) and incubated overnight at 4 °C. The plate was blocked with 10% milk solution for an additional 2 h in a 37 °C shaker, followed by a 3 h incubation in the 37 °C shaker with various concentrations (10^−3 to 10^−11 M) of test compounds in the presence of biotinylated vitronectin (2.0 μg/mL). After washing, the plates were incubated for 1 h in the 37 °C shaker with streptavidin–HRP and then washed again, followed by 30 min of incubation with 100 μL/well TMB single-component substrate solution before stopping the reaction with the addition of 100 μL/well 2.0 N H2SO4. The absorbance at 450 nm was read on a microplate reader. Each data point represents the average of the triplicate wells, and data analysis was performed using nonlinear regression analysis with GraphPad Prism 5.0 software (GraphPad Software, Inc., San Diego, CA, USA.).

U87-MG tumor [5] = format: in vivo, Balb/c nude mice; human U87-MG cells
Source text: To examine the tumor enrichment of these conjugates in vivo, we prepared a xenograft tumor model by subcutaneously inoculating mice with U87-MG tumor cells ([…]) on the axilla. U87-MG cells have high expression levels of the αvβ3 integrin receptor. When the tumors grew to approximately 200 mm^3 in volume, the conjugates (50 nmol per mouse) were intravenously injected into the mice via the tail vein. The fluorescence signal and intensity distribution were continuously monitored using an in vivo fluorescence imaging system (IVIS Lumina II, Xenogen, Alameda, CA, USA). […] However, relatively weak fluorescence signals in the tumor site could be detected. […] The increased water hydrophilicity of the divalent and trivalent conjugates may contribute to the reduction in the liver accumulation.
Human U87-MG cells (4 × 10^6 cells/mouse) were subcutaneously inoculated on the axilla of female Balb/c nude mice. […] In vivo fluorescence analysis was performed before and after the injection at various time points using the IVIS Lumina imaging system (IVIS Lumina II, Xenogen, USA) with a Cy5.5 filter (excitation: 615–665 nm, emission: 695–770 nm). Alternatively, the mice were euthanized at 2 h postinjection, and major organs, including the heart, liver, spleen, lungs, kidneys, and muscles, as well as the tumor, were collected; fluorescence images were then acquired.

U87-MG tumor [6] = format: in vivo, Balb/c nude mice; human U87-MG cells; conditions: 50 nmol/mouse i.v.; mice euthanized 2 h postinjection; vs the other two conjugates; triplicates
Protocol: To further verify the tumor targeting ability of these conjugates, the mice were euthanized 2 h postinjection, and their organs were collected for imaging. As shown in Figure 3B (heart, liver, spleen, lungs, and tumor from left to right), when the valence of the conjugates increased, the fluorescence signal in the tumor region increased.
Human U87-MG cells (4 × 10^6 cells/mouse) were subcutaneously inoculated on the axilla of female Balb/c nude mice. When the tumors grew to 200 mm^3, the mice were divided into three groups with each group containing three mice. The mice were then intravenously injected with 50 nmol/mouse of Pyro-MonoRGD, Pyro-DiRGD, and Pyro-TriRGD, respectively. In vivo fluorescence analysis was performed before and after the injection at various time points using the IVIS Lumina imaging system (IVIS Lumina II, Xenogen, USA) with a Cy5.5 filter (excitation: 615–665 nm, emission: 695–770 nm). Alternatively, the mice were euthanized at 2 h postinjection, and major organs, including the heart, liver, spleen, lungs, kidneys, and muscles, as well as the tumor, were collected; fluorescence images were then acquired.

αvβ3 integrin receptor = conditions: compared with antibody molecules; no reference given at the statement; cited from earlier work
Source text: However, compared with antibody molecules, small molecule ligands have a much weaker affinity to their receptors, which makes their tumor enrichment not always ideal. In our former work, we coupled a very promising photosensitizer, pyropheophorbide-a (Pyro), which has ideal photosensitizer properties, with a small molecule tumor homing ligand—cyclo(-RGDfK-)—to prepare a tumor-targeted conjugate. The cyclic peptide cyclo(-RGDfK-), which contains a conformationally restrained RGD sequence, has been often used for targeting tumor imaging and/or therapeutic agents as a high affinity ligand ...

IC50 [4] [µM] | Compound | singlet oxygen quantum yield ΦΔ [1] | λmax [3] [nm] | λem [3] [nm] | Stokes Shift [3] [nm] | also measured
0.313 ± 0.0231 | C=Cc1c(C)c2cc3nc(c4c5[nH]c(cc6nc(cc1[nH]2)C(C)=C6CC)c(C)c5C(=O)C4)[C@@H](CCC(=O)NC(COCCC(=O)NCCCOCCOCCOCCCNC(=O)C[C@@H]1NC(=O)[C@@H](Cc2ccccc2)NC(=O)[C@H](CC(=O)O)NC(=O)CNC(=O)[C@H](CCCNC(=N)N)NC1=O)COCCC(=O)NCCCOCCOCCOCCCNC(=O)C[C@@H]1NC(=O)[C@@H](Cc2ccccc2)NC(=O)[C@H](CC(=O)O)NC(=O)CNC(=O)[C@H](CCCNC(=N)N)NC1=O)[C@@H]3C (stereo partly drawn) [Pyro-DiRGD] | 0.47 | 668 | 673 | 5 | –
0.0438 ± 0.0082 | C=Cc1c(C)c2cc3nc(c4c5[nH]c(cc6nc(cc1[nH]2)C(C)=C6CC)c(C)c5C(=O)C4)[C@@H](CCC(=O)NC(COCCC(=O)NCCCOCCOCCOCCCNC(=O)C[C@@H]1NC(=O)[C@@H](Cc2ccccc2)NC(=O)[C@H](CC(=O)O)NC(=O)CNC(=O)[C@H](CCCNC(=N)N)NC1=O)(COCCC(=O)NCCCOCCOCCOCCCNC(=O)C[C@@H]1NC(=O)[C@@H](Cc2ccccc2)NC(=O)[C@H](CC(=O)O)NC(=O)CNC(=O)[C@H](CCCNC(=N)N)NC1=O)COCCC(=O)NCCCOCCOCCOCCCNC(=O)C[C@@H]1NC(=O)[C@@H](Cc2ccccc2)NC(=O)[C@H](CC(=O)O)NC(=O)CNC(=O)[C@H](CCCNC(=N)N)NC1=O)[C@@H]3C (stereo partly drawn) [Pyro-TriRGD] | 0.48 | 668 | 673 | 5 | tumor accumulation, 2–6 h postinjection (U87-MG tumor [5]; 50 nmol/mouse i.v., 2–6 h postinjection): excellent tumor accumulation at 2–6 h postinjection; tumor enrichment, overall comparison (U87-MG tumor [5]; compared with the other two conjugates): had the best tumor enrichment compared with the other two conjugates; fluorescence intensity in excised tumor, 2 h postinjection (U87-MG tumor [6]): the highest fluorescence intensity at the tumor site; binding to integrin αvβ3, fold better than Pyro-DiRGD ([4]; ratio vs divalent Pyro-DiRGD): 7 -fold; binding to integrin αvβ3, fold better than Pyro-MonoRGD ([4]; ratio vs monovalent Pyro-MonoRGD): 20 -fold

Further lines, the compound ahead of its results:

Compound | IC50 [4] [µM] | singlet oxygen quantum yield ΦΔ [1] | λmax [3] [nm] | λem [3] [nm] | Stokes Shift [3] [nm] | also measured
C=Cc1c(C)c2cc3nc(c4c5[nH]c(cc6nc(cc1[nH]2)C(C)=C6CC)c(C)c5C(=O)C4)[C@@H](CCC(=O)O)[C@@H]3C [Pyro, pyropheophorbide-a, reference compound] | – | 0.52 | 668 | 673 | 5 | tumor localization ability (tumors in a mouse model): very limited tumor localization ability; extinction coefficient [2]: 37900 L/mol/cm; singlet oxygen quantum yield [2]: over 50%
C=Cc1c(C)c2cc3nc(c4c5[nH]c(cc6nc(cc1[nH]2)C(C)=C6CC)c(C)c5C(=O)C4)[C@@H](CCC(=O)NCCCOCCOCCOCCCNC(=O)C[C@@H]1NC(=O)[C@@H](Cc2ccccc2)NC(=O)[C@H](CC(=O)O)NC(=O)CNC(=O)[C@H](CCCNC(=N)N)NC1=O)[C@@H]3C [Pyro-MonoRGD] | 0.951 ± 0.0396 | – | – | – | – | –
cyclo(-RGDfK-) | – | – | – | – | – | affinity to αvβ3 integrin receptor (αvβ3 integrin receptor): only has a moderate affinity to the αvβ3 integrin receptor
